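All cell lines were grown in 96-well plates and treated with compound for 48 hours. The concentration for full growth arrest is given as TGI.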
Key:
Test in all cases: inhibition of tumour cell growth, NCI panel, 48 h
786-0 renal = test system: 786-0 renal
A498 renal = test system: A498 renal
A549 NSCLC = test system: A549 NSCLC
CAKI-1 renal = test system: CAKI-1 renal
CCRF-CEM leukemia = test system: CCRF-CEM leukemia
COLO 205 colon = test system: COLO 205 colon
DLD-1 colon = test system: DLD-1 colon
DMS 114 small cell lung = test system: DMS 114 small cell lung
DMS 273 small cell lung = test system: DMS 273 small cell lung
EKVX NSCLC = test system: EKVX NSCLC
HCC-2998 colon = test system: HCC-2998 colon
HCT-116 colon = test system: HCT-116 colon
HCT-15 colon = test system: HCT-15 colon
HL-60(TB) leukemia = test system: HL-60(TB) leukemia
HOP-62 NSCLC = test system: HOP-62 NSCLC
HT29 colon = test system: HT29 colon
IGROV1 ovarian = test system: IGROV1 ovarian
K-562 leukemia = test system: K-562 leukemia
KM12 colon = test system: KM12 colon
KM20L2 colon = test system: KM20L2 colon
LOX IMVI melanoma = test system: LOX IMVI melanoma
LXFL 529 NSCLC = test system: LXFL 529 NSCLC
M14 melanoma = test system: M14 melanoma
M19-MEL melanoma = test system: M19-MEL melanoma
MALME-3M melanoma = test system: MALME-3M melanoma
MOLT-4 leukemia = test system: MOLT-4 leukemia
NCI-H23 lung = test system: NCI-H23 lung
NCI-H522 lung = test system: NCI-H522 lung
OVCAR-3 ovarian = test system: OVCAR-3 ovarian
OVCAR-4 ovarian = test system: OVCAR-4 ovarian
OVCAR-5 ovarian = test system: OVCAR-5 ovarian
OVCAR-8 ovarian = test system: OVCAR-8 ovarian
RPMI-8226 leukemia = test system: RPMI-8226 leukemia
SF-268 CNS = test system: SF-268 CNS
SF-295 CNS = test system: SF-295 CNS
SF-539 CNS = test system: SF-539 CNS
SK-MEL-2 melanoma = test system: SK-MEL-2 melanoma
SK-MEL-28 melanoma = test system: SK-MEL-28 melanoma
SK-MEL-5 melanoma = test system: SK-MEL-5 melanoma
SK-OV-3 ovarian = test system: SK-OV-3 ovarian
SN12C renal = test system: SN12C renal
SNB-19 CNS = test system: SNB-19 CNS
SNB-75 CNS = test system: SNB-75 CNS
SNB-78 CNS = test system: SNB-78 CNS
SW-620 colon = test system: SW-620 colon
TK-10 renal = test system: TK-10 renal
U251 CNS = test system: U251 CNS
UACC-257 melanoma = test system: UACC-257 melanoma
UACC-62 melanoma = test system: UACC-62 melanoma
UO-31 renal = test system: UO-31 renal
XF 498 CNS = test system: XF 498 CNS
ACHN renal = test system: ACHN renal
HOP-92 NSCLC = test system: HOP-92 NSCLC
NCI-H460 lung = test system: NCI-H460 lung
RXF 393 renal = test system: RXF 393 renal
NCI-H226 lung = test system: NCI-H226 lung
SR leukemia = test system: SR leukemia

SMILES: N#CCCN(c1ccc(/C=N/c2nc(-c3ccccc3)cs2)cc1)S(=O)(=O)c1ccccc1
- TGI (786-0 renal): > 100 µM
- TGI (A498 renal): > 100 µM
- TGI (A549 NSCLC): > 100 µM
- TGI (CAKI-1 renal): > 100 µM
- TGI (CCRF-CEM leukemia): > 100 µM
- TGI (COLO 205 colon): > 100 µM
- TGI (DLD-1 colon): > 100 µM
- TGI (DMS 114 small cell lung): > 100 µM
- TGI (DMS 273 small cell lung): > 100 µM
- TGI (EKVX NSCLC): > 100 µM
- TGI (HCC-2998 colon): > 100 µM
- TGI (HCT-116 colon): > 100 µM
- TGI (HCT-15 colon): > 100 µM
- TGI (HL-60(TB) leukemia): > 100 µM
- TGI (HOP-62 NSCLC): > 100 µM
- TGI (HT29 colon): > 100 µM
- TGI (IGROV1 ovarian): > 100 µM
- TGI (K-562 leukemia): > 100 µM
- TGI (KM12 colon): > 100 µM
- TGI (KM20L2 colon): > 100 µM
- TGI (LOX IMVI melanoma): > 100 µM
- TGI (LXFL 529 NSCLC): > 100 µM
- TGI (M14 melanoma): > 100 µM
- TGI (M19-MEL melanoma): > 100 µM
- TGI (MALME-3M melanoma): > 100 µM
- TGI (MOLT-4 leukemia): > 100 µM
- TGI (NCI-H23 lung): > 100 µM
- TGI (NCI-H522 lung): > 100 µM
- TGI (OVCAR-3 ovarian): > 100 µM
- TGI (OVCAR-4 ovarian): > 100 µM
- TGI (OVCAR-5 ovarian): > 100 µM
- TGI (OVCAR-8 ovarian): > 100 µM
- TGI (RPMI-8226 leukemia): > 100 µM
- TGI (SF-268 CNS): > 100 µM
- TGI (SF-295 CNS): > 100 µM
- TGI (SF-539 CNS): > 100 µM
- TGI (SK-MEL-2 melanoma): > 100 µM
- TGI (SK-MEL-28 melanoma): > 100 µM
- TGI (SK-MEL-5 melanoma): > 100 µM
- TGI (SK-OV-3 ovarian): > 100 µM
- TGI (SN12C renal): > 100 µM
- TGI (SNB-19 CNS): > 100 µM
- TGI (SNB-75 CNS): 93.5 µM
- TGI (SNB-78 CNS): > 100 µM
- TGI (SW-620 colon): > 100 µM
- TGI (TK-10 renal): > 100 µM
- TGI (U251 CNS): > 100 µM
- TGI (UACC-257 melanoma): > 100 µM
- TGI (UACC-62 melanoma): > 100 µM
- TGI (UO-31 renal): > 100 µM
- TGI (XF 498 CNS): > 100 µM

SMILES: O=C1N[C@H](Cc2cnc[nH]2)C(=O)N2CCC[C@@H]12
- TGI (786-0 renal): > 100 µM
- TGI (A549 NSCLC): > 100 µM
- TGI (ACHN renal): > 100 µM
- TGI (CAKI-1 renal): > 100 µM
- TGI (CCRF-CEM leukemia): > 100 µM
- TGI (COLO 205 colon): > 100 µM
- TGI (DLD-1 colon): > 100 µM
- TGI (DMS 114 small cell lung): > 100 µM
- TGI (DMS 273 small cell lung): > 100 µM
- TGI (EKVX NSCLC): > 100 µM
- TGI (HCC-2998 colon): > 100 µM
- TGI (HCT-15 colon): > 100 µM
- TGI (HL-60(TB) leukemia): > 100 µM
- TGI (HOP-62 NSCLC): > 100 µM
- TGI (HOP-92 NSCLC): > 100 µM
- TGI (IGROV1 ovarian): > 100 µM
- TGI (K-562 leukemia): > 100 µM
- TGI (KM12 colon): > 100 µM
- TGI (KM20L2 colon): > 100 µM
- TGI (LOX IMVI melanoma): > 100 µM
- TGI (LXFL 529 NSCLC): > 100 µM
- TGI (M14 melanoma): > 100 µM
- TGI (M19-MEL melanoma): > 100 µM
- TGI (MALME-3M melanoma): > 100 µM
- TGI (MOLT-4 leukemia): > 100 µM
- TGI (NCI-H23 lung): > 100 µM
- TGI (NCI-H460 lung): > 100 µM
- TGI (NCI-H522 lung): > 100 µM
- TGI (OVCAR-3 ovarian): > 100 µM
- TGI (OVCAR-4 ovarian): > 100 µM
- TGI (OVCAR-5 ovarian): > 100 µM
- TGI (OVCAR-8 ovarian): > 100 µM
- TGI (RPMI-8226 leukemia): > 100 µM
- TGI (RXF 393 renal): > 100 µM
- TGI (SF-268 CNS): > 100 µM
- TGI (SF-295 CNS): > 100 µM
- TGI (SK-MEL-2 melanoma): > 100 µM
- TGI (SK-MEL-28 melanoma): > 100 µM
- TGI (SK-MEL-5 melanoma): > 100 µM
- TGI (SK-OV-3 ovarian): > 100 µM
- TGI (SN12C renal): > 100 µM
- TGI (SNB-19 CNS): > 100 µM
- TGI (SNB-75 CNS): > 100 µM
- TGI (SNB-78 CNS): > 100 µM
- TGI (SW-620 colon): > 100 µM
- TGI (TK-10 renal): > 100 µM
- TGI (UACC-257 melanoma): > 100 µM
- TGI (UACC-62 melanoma): > 100 µM
- TGI (UO-31 renal): > 100 µM
- TGI (XF 498 CNS): > 100 µM

SMILES: O=C(Nc1ccc(F)cc1)C(=O)C(C(=O)c1ccccc1F)C1OC(=O)c2ccccc21 (centres undefined)
- TGI (A498 renal): > 100 µM
- TGI (A549 NSCLC): > 100 µM
- TGI (ACHN renal): > 100 µM
- TGI (CAKI-1 renal): > 100 µM
- TGI (CCRF-CEM leukemia): 90.8 µM
- TGI (COLO 205 colon): > 100 µM
- TGI (DLD-1 colon): > 100 µM
- TGI (DMS 114 small cell lung): > 100 µM
- TGI (DMS 273 small cell lung): > 100 µM
- TGI (EKVX NSCLC): > 100 µM
- TGI (HCC-2998 colon): > 100 µM
- TGI (HCT-116 colon): > 100 µM
- TGI (HCT-15 colon): > 100 µM
- TGI (HL-60(TB) leukemia): > 100 µM
- TGI (HOP-62 NSCLC): > 100 µM
- TGI (HOP-92 NSCLC): > 100 µM
- TGI (HT29 colon): > 100 µM
- TGI (IGROV1 ovarian): > 100 µM
- TGI (K-562 leukemia): > 100 µM
- TGI (KM12 colon): > 100 µM
- TGI (KM20L2 colon): > 100 µM
- TGI (LOX IMVI melanoma): > 100 µM
- TGI (LXFL 529 NSCLC): > 100 µM
- TGI (M14 melanoma): > 100 µM
- TGI (MOLT-4 leukemia): > 100 µM
- TGI (NCI-H226 lung): 63.5 µM
- TGI (NCI-H23 lung): > 100 µM
- TGI (NCI-H460 lung): > 100 µM
- TGI (NCI-H522 lung): 71.8 µM
- TGI (OVCAR-4 ovarian): > 100 µM
- TGI (OVCAR-5 ovarian): > 100 µM
- TGI (OVCAR-8 ovarian): > 100 µM
- TGI (RPMI-8226 leukemia): > 100 µM
- TGI (RXF 393 renal): > 100 µM
- TGI (SF-268 CNS): > 100 µM
- TGI (SF-295 CNS): > 100 µM
- TGI (SF-539 CNS): 89.9 µM
- TGI (SK-MEL-2 melanoma): > 100 µM
- TGI (SK-MEL-28 melanoma): > 100 µM
- TGI (SK-MEL-5 melanoma): > 100 µM
- TGI (SK-OV-3 ovarian): > 100 µM
- TGI (SN12C renal): > 100 µM
- TGI (SNB-19 CNS): > 100 µM
- TGI (SNB-75 CNS): > 100 µM
- TGI (SNB-78 CNS): > 100 µM
- TGI (SR leukemia): 59.6 µM
- TGI (SW-620 colon): > 100 µM
- TGI (TK-10 renal): > 100 µM
- TGI (U251 CNS): 66.1 µM
- TGI (UACC-257 melanoma): > 100 µM
- TGI (UACC-62 melanoma): > 100 µM
- TGI (UO-31 renal): > 100 µM
- TGI (XF 498 CNS): > 100 µM
